Assay results reported in patent US20260177556A1, “PROXIMITY-BASED LABELING OF SIALYLATED GLYCOPROTEINS” (THE TRUSTEES OF PRINCETON UNIVERSITY, priority 2022, published 2026).

Columns and labels:
Type in all cases: cell-based
[1] = tested on: HEK293T, HeLa or primary cervical epithelial cells; test: Confocal microscopy of biotinylation after glycomap experiment; settings: after Ac4ManNAz, 5 μM reagent, irradiation in presence of biotin-diazirine
Procedure: Cells (HEK293T, HeLa or primary cervical epithelial cells) (approx. 2×10^4 cells) were incubated in poly-lysine coated 8 well chamber slides in complete DMEM (200 μL) containing Ac4ManNAz (100 μM) at 37° C. for 48 hours. The cells were washed with DPBS (3×200 μL) and then incubated in complete DMEM (200 μL) containing DBCO-iridium (5 μM) or DBCO-biotin (5 μM) at 37° C. for 24 hours. The cells were washed with DPBS (3×200 μL) and irradiated in DMEM (no phenol-red, 200 μL) containing biotin-diazirine (250 μM) at room temperature for 20 minutes in the biophotoreactor (blue LEDs). The cells were washed with DPBS (3×200 μL) and fixed with prewarmed 4% paraformaldehyde (200 μL) at room temperature for 30 min. The cells were washed with DPBS (2×200 μL) and blocked with 3% BSA in DPBS (200 μL) at room temperature for 1 hour. The blocking buffer was replaced with fresh 3% BSA in DPBS (200 μL) containing Hoechst (1:1000), and Streptavidin-AlexaFluor 555 conjugate (1:1000). The cells were stained in the dark at room temperature for 1 hour and then stored in the dark at 4° C. The cells were imaged on a NIKON A1R-SI microscope (Nikon Instruments, Inc., Melville, NY) at 20× magnification. The images were processed with Fiji-ImageJ. Images shown are representative of the multiple cross-sectional images taken during each session.

[2] = tested on: sialylated cell-surface glycoproteins of HeLa cells; test: Glycomap labeling efficiency by streptavidin western blot densitometry; settings: for Experiment/control: ratio of densitometry readouts
Procedure: HeLa cells (approx. 0.4×10^6 cells) were incubated in 6 well dishes in complete DMEM (2 mL) containing Ac4ManNAz (100 μM) at 37° C. for 72 hours. The cells were washed with DPBS (3×1 mL) and then incubated in complete DMEM (2 mL) containing DBCO-iridium (5 μM) or DBCO-biotin (5 μM) at 37° C. for 24 hours. The cells were washed with DPBS (3×1 mL) and irradiated in DMEM (no phenol-red, 200 μL) containing biotin-diazirine (250 μM) at room temperature for 20 minutes in the biophotoreactor (blue LEDs). The cells were washed with DPBS (3×1 mL), scraped in DPBS (1 mL), and transferred to 1.5 mL Eppendorf tubes. The cells were pelleted at 400×G for 5 minutes and resuspended in Ripa lysis buffer (500 μL). The cells were lysed by sonication (bioruptor) at 4° C. for 10 minutes (20 cycles, 15 sec on 15 sec off at 100% power). The protein concentration was normalized by BCA assay and the lysate was analyzed by Western blot (20 μg of protein per lane, 12% gel, 150 V). The gel was transferred via iBlot 2 to an NC membrane Following transfer, the membrane was immersed in Odyssey Blocking Buffer (Li-Cor, 927-50000) and incubated at room temperature for 1 hour. The blocking buffer was replaced with fresh blocking buffer (10 mL) containing anti-Actin antibody (10 μL) and the membrane was rocked for 1 hour. The buffer was decanted, and the membranes were washed with 1×TBST (4×5 min) and water (3×5 sec). […]
Based on the Western blot results shown in FIG. 2B the efficiency of labeling via Glycomap can be calculated using densitometry. […]
The whole calculation is listed below: • Densitometry readout DBCO-Iridium full experiment: 108′442 • Densitometry readout DBCO-Iridium control: 6′164 • Experiment/control: 17.6 • Densitometry readout DBCO-Biotin full experiment: 158′335 • Densitometry readout DBCO-Biotin control: 5′937 • Experiment/control: 26.7 • Comparison: 17.6/26.7=0.7 tags per catalyst.

HeLa cells [3] = test: Colorimetric zinc assay
Procedure: The zinc assay was purchased from Abcam (ab102507), and the experiment was performed according to the procedure below, adapted from the supplier's instructions.
In transparent 10 cm dishes, HeLa cells were grown in complete medium (DMEM, supplemented with 10% FBS) in presence (×3) or absence (×3) of VC-sialidase (20 mU/mL medium) for 96 hours. The medium was exchanged every 24 hours and fresh sialidase was added at those timepoints. After 96 hours, the medium was removed and DPBS (5 mL) was added. The cells were scraped, transferred to 15 mL conical tubes, and pelleted at 400×g for 5 minutes. The supernatant was removed, and the cells were lysed in 50 μL EDTA-free lysis buffer lysed by sonication (bioruptor) at 4° C. for 10 minutes.
The lysate was clarified at 18′000×g for 15 minutes and analyzed by BCA assay. 30 µL of the cell lysate was transferred to a 1.5 mL Eppendorf tube containing 30 μL of 7% TCA to precipitate proteins. The mixture was clarified at 18′000×g for 5 minutes and […] of the resulting solution were used for the zinc detection assay.

HeLa cells [4] = test: Mass spectrometry-based metabolomic quantification of sialidase-treated cells; settings: sialidase-treated vs untreated HeLa cells, 72 hours
Procedure: In transparent 10 cm dishes (×6), HeLa cells were grown for 72 hours in 5 mL complete DMEM supplemented with 10% FBS in presence or absence of neuraminidase (20 U/mL). After 72 hours, the cells were washed with DPBS (3×5 mL) and incubated with TrypLE (1 mL) for 15 minutes at 37° C. The cells were transferred to 15 mL conical tubes using 4 mL DPBS to wash the plates. The cells were pelleted at 500×G for 4 minutes and resuspended in 1 mL DPBS. The cells were counted, and 500′000 cells/experiment were transferred to 1.5 mL Eppendorf tubes. The cells were pelleted (500×g for 4 min), the supernatant removed, and the cells were lysed with ice cold 80% MeOH (60 μL) for 30 minutes at 0° C. The cell lysate was clarified by centrifugation at 20′000×G for 25 minutes and the lysates were transferred to new 0.5 mL Eppendorf tubes and stored at −80° C. until mass spectrometry analysis.
HPLC-grade water, methanol, and acetonitrile were obtained from Thermo Fisher Scientific. Supernatant sample was thawed at room temperature and kept at 4° C. in an autosampler. Samples were analyzed using a Q Exactive Plus mass spectrometer coupled to Vanquish UHPLC system (Thermo Fisher Scientific). LC separation was achieved using a XBridge BEH Amide column (2.1 mm×150 mm, 2.5-μm particle size, 130-A pore size; Waters, Milford, MA, USA) using a gradient of solvent A (20 mM ammonium acetate+20 mM ammonium hydroxide in 95:5 water/acetonitrile [pH 9.45]) and solvent B (acetonitrile). Flow rate was […]. The gradient was 0 min, 90% B; 2 min, 90% B; 3 min, 75%; 7 min, 75% B; 8 min, 70%, 9 min, 70% B; 10 min, 50% B; 12 min, 50% B; 13 min, 25% B; 14 min, 25% B; 16 min, 0% B, 20.5 min, 0% B; 21 min, 90% B; 25 min, 90% B. The column temperature was 25° C., and the injection volume was 5 μL. The mass spectrometer is operated in full scan mode with separate runs in positive mode and negative mode covering m/z 70-1000, with resolution 140,000 at m/z 200, AGC target 5E6, maximum injection time 200 ms.
Data analyses were performed using El-Maven and the metabolites identified with an in-house library using authentic standards.^3 Metabolite signal intensity were then further processed in Excel (median correction) and Graphpad Prism (transformation, t-test, and volcano plot generation).

Compound: O=C(CCCC[C@@H]1SC[C@@H]2NC(=O)N[C@@H]21)NCC(C(=O)NCCC(=O)N1Cc2ccccc2C#Cc2ccccc21)S(=O)(=O)O (some centres unmarked) [DBCO-biotin, DBCO-Sulfo-Link-biotin, reference compound]
- biotinylation by confocal microscopy [1]: strong biotinylation
- Experiment/control [2]: 26.7

Compound: VC-Sia: sialidase isolated from Vibrio cholerae, cleaves α2,3-, α2,6-, or α2,8-linked sialic acids
- Zinc concentration (nmol zinc/mg of protein-free lysate) (HeLa cells [3]; HeLa cells, VC-sialidase 20 mU/mL medium, 96 hours, single replicates): 1.4 nmol/mg
- zinc level vs untreated cells (HeLa cells [3]; sialidase-treated vs untreated HeLa cells): significantly higher
- level of cytidine diphosphate choline (CDP-choline) (HeLa cells [4]): significantly increased
- level of cytidine diphosphate ethanolamine (CDP-Etn) (HeLa cells [4]): significantly increased
- level of phosphate ethanolamine (P-Etn) (HeLa cells [4]): significantly increased
- most metabolite levels (HeLa cells [4]): minimally affected

Compound: [Ir(dCO2HdFCF3ppy)2(bpy-dbco) [DBCO-iridium]
- biotinylation by confocal microscopy [1]: strong biotinylation
- tags per catalyst (labeling efficiency) ([2]; HeLa cells, Ac4ManNAz 100 μM, streptavidin blot densitometry, relative to DBCO-biotin): 0.7 tags per catalyst
- Experiment/control [2]: 17.6
